The nature of data set [1]: Solution state stability assay. It counts as physicochemical. The note with it: 50° C.; for % degradation at 28 days: HPLC; for aqueous stability / hydrolysis, comparison in words: buffer, 28 days. On the procedure:
Compounds were incubated in the buffer media indicated (ingredients for making of PBS buffer and sodium citrate/citric acid buffer were obtained from Sigma-Aldrich, St. Louis, MO, USA). The reactions were conducted at either 50° C. and for 28 days. Samples were collected at specific time points and analyzed for % degradation of the parent compound based on UV/Vis analysis.
Methods: Samples were weighed using a Mettler Toledo XS105 analytical balance (accurate to +/−0.01 mg). Accurate dilutions were made with a P1000, P200, or P20 Gilson Pipetman, or an Eppendorf Maxipettor 1-10 mL pipettor. pH Measurements were made with a Hanna Instruments HI 4222 pH meter and a Hanna instruments HI 1330B micro pH probe. Samples were analyzed via high pressure liquid chromatography using an Agilent series 1100 HPLC instrument with a Grace Alltima column. Chromatograms were manually integrated. Individual chromatograms are assigned an automatic HPLC identification number.
Freshly prepared 1.0 mg/mL solution of each compound listed in Table # was allotted into two-dram clear glass vials. […] The vials were then stored in an oven set to 50° C. At the appropriate time points, the vials were removed from the oven, vortexed for 30 seconds and an aliquot (400 μL) was pipetted into an HPLC vial and quenched with 1% TFA in ACN (400 μL). […] For all samples, aliquots were taken after 28 days. Quenched vials were immediately analyzed via HPLC.

Data set [2] deals with T1, human TRPM8 receptor expressed in transfected 293H cells (Homo sapiens, UniProt Q7Z2W7).
T1 construct: expressed in transfected cells; host or cells: 293H cells
T1 sequence (Q7Z2W7 whole entry): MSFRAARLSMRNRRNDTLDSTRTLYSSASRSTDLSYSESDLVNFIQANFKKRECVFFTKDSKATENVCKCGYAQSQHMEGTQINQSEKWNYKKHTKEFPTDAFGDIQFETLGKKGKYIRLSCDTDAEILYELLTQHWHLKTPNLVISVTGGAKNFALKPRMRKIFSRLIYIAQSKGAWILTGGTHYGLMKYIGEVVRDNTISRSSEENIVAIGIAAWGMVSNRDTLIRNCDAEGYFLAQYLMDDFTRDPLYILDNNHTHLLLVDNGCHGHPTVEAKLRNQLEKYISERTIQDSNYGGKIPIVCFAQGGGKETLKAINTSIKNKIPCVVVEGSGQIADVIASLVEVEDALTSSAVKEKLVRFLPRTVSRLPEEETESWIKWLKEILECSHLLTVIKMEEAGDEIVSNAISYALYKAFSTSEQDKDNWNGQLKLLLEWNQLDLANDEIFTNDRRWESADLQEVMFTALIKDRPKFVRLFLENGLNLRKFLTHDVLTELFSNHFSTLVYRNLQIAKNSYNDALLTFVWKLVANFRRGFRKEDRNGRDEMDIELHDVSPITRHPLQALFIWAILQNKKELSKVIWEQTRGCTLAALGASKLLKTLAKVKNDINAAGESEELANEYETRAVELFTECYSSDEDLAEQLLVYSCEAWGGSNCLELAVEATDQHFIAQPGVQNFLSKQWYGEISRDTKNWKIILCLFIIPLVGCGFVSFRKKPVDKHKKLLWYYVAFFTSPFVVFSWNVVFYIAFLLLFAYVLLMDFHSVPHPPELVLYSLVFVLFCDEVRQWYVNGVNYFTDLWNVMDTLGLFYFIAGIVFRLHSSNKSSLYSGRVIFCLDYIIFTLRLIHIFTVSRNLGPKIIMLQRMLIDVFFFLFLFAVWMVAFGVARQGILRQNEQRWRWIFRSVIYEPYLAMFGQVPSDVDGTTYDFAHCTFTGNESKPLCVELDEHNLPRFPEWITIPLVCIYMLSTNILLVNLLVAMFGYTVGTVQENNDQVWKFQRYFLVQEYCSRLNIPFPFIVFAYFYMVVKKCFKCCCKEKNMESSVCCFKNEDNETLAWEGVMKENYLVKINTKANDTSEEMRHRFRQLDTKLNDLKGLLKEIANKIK
Description: TRPM8 Human Transient Potential Ion Channel Cell Based Agonist Calcium Flux Assay (FLIPR). The text has this: This example discloses results from TRPM8 Human Transient Potential Ion Channel Cell Based Agonist Calcium Flux Assay. Evaluation of the agonist activity of compounds at the human TRPM8 receptor expressed in transfected 293H cells, determined by measuring their effect on cytosolic Ca2+ ion mobilization using a fluorometric detection method.
Protocol: The cells are suspended in DMEM buffer (Invitrogen), then distributed in microplates at a density of 3×10^4 cells/well. The fluorescent probe (Fluo4 Direct, Invitrogen) in HBSS buffer (Invitrogen) complemented with 20 mM Hepes (Invitrogen) (pH 7.4) is then added into each well and equilibrated with the cells for 60 min at 37° C. then 15 min at 22° C. Thereafter, the assay plates are positioned in a microplate reader (CellLux, PerkinElmer) which is used for the addition of the test compound, reference agonist or HBSS buffer (basal control), and the measurements of changes in fluorescence intensity which varies proportionally to the free cytosolic Ca2+ ion concentration. For stimulated control measurements, Icilin at 3 μM is added in separate assay wells. The results are expressed as a percent of the control response to 3 μM icilin. The standard reference agonist is Icilin, which is tested in each experiment at several concentrations to generate a concentration-response curve from which its EC50 value is calculated. (Behrendt, H. J., Germann, T., Gillen, C and Hatt, H. and Jostock, R. (2004), Characterization of the mouse cold-menthol receptor TRPM8 and vanilloid receptor type-1 VR1 using a fluorometric imaging plate reader (FLIPR) assay, Br. J. Pharmacol., 141: 737.)
Data analysis: EC50 values were determined as the concentration of test substance required to produce half-maximal increases in [Ca^2+]. Maximal [Ca^2+] responses were measured as peak fluorescence intensity (FI) minus basal FI, and expressed as percentages of the maximum response to icilin. Data are given as means±s.e.m., unless otherwise stated.
The EC50 values (concentration producing a half-maximal response) and IC50 values (concentration causing a half-maximal inhibition of the control agonist response) were determined by non-linear regression analysis of the concentration-response curves generated with mean replicate values using Hill equation curve fitting:
where Y=response, A=left asymptote of the curve, D=right asymptote of the curve, C=compound concentration, and C50=EC50, and nH=slope factor.

A short description of data set [3]: Solubility assay in DI water. The format is physicochemical. The note with it: thermodynamic from solid, HCl salts, visual, stepwise dilution from 200 mg/mL, sonication and vortex. On the procedure:
In order to determine the aqueous solubility of the compounds indicated, the HCl salts of the following compounds were incubated at 200 mg/mL in DI water followed by sonication for 60 seconds and then vortex stirring for 60 seconds. If insoluble material was observed, the sample was diluted to 150, 100, 50, 25, or 20 mg/mL until no insoluble material was observed. After each dilution, each sample was sonicated for 60 seconds, vortexed for 60 seconds and let equilibrate with occasional shaking for 30 minutes.

Setting [4] is: pH = ~5.0 (0.2 M aqueous sodium citrate/citric acid buffer).
Setting [5] is: pH = ~7.4 (1X Phosphate Buffered Saline).
The mark [6] stands for this setting: Ca2+ mobilization, fluorometric detection, 293H cells, response relative to 3 μM icilin, read-out: TRPM8 agonist EC50.

SMILES strings stand for the structures. Where a name gives a salt, the structure may show the parent alone. Read-outs that look alike come from different tables or passages of the source.

`CC(C)[C@@H]1CC[C@@H](C)C[C@H]1OC(=O)Nc1cccc(CN)c1` [Aniline 1]: the “% degradation at 28 days” value in data set [1] (setting [4]) was about 36.2%; in data set [1] (setting [5]), about 41.2%.
As to `CC(C)[C@@H]1CC[C@@H](C)C[C@H]1OC(=O)N(C)c1cccc(CN)c1` [Aniline 2], the “% degradation at 28 days” value in data set [1] (setting [4]) is given as about 24.3%; in data set [1] (setting [5]) it was about 24.4%.
For `CC(C)[C@@H]1CC[C@@H](C)C[C@H]1OCC(=O)N(C)c1cccc(CN)c1` [Aniline 3], the “aqueous stability / hydrolysis, comparison in words” value in data set [1] is “more stable”. Further, the results for the “% degradation at 28 days” value in data set [1] (setting [4]) and in data set [1] (setting [5]) were about 0.4% and about 8.1%, respectively.
On to `CC(C)[C@@H]1CC[C@@H](C)C[C@H]1C(=O)N(C)c1cccc(CN)c1` [Aniline 4], for which the “% degradation at 28 days” value in data set [1] (setting [4]) is about 23.5%; in data set [1] (setting [5]), about 31.9%.
For the molecule `CC(C)[C@@H]1CC[C@@H](C)C[C@H]1OCC(=O)N(C)Cc1cccc(CN(C)C)c1` [Compound 1, N-(3-((dimethylamino)methyl)benzyl)-2-(((1R,2S,5R)-2-isopropyl-5-methylcyclohexyl)oxy)-N-methylacetamide hydrochloride], in data set [2] (setting [6]), the EC50 was 973 nM.
On to `CC(C)[C@@H]1CC[C@@H](C)C[C@H]1OCC(=O)NCc1ccc(CN)cc1` [Compound 2, N-(4-(aminomethyl)benzyl)-2-(((1R,2S,5R)-2-isopropyl-5-methylcyclohexyl)oxy)acetamide hydrochloride], for which the EC50 in data set [2] (setting [6]) amounted to 3310 nM.
With `CC(C)[C@@H]1CC[C@@H](C)C[C@H]1C(=O)N(C)Cc1cccc(CN(C)C)c1.Cl` [Compound 3, (1R,2S,5R)-N-(3-((dimethylamino)methyl)benzyl)-2-isopropyl-N,5-dimethylcyclohexanecarboxamide hydrochloride], the EC50 in data set [2] (setting [6]) amounted to 752 nM. Also, the “aqueous stability / hydrolysis, comparison in words” value in data set [1] is given as “greatest aqueous stability”. The “% degradation at 28 days” value in data set [1] (setting [4]) and in data set [1] (setting [5]) was “Noneª None^b” throughout.
As for `CC(C)[C@@H]1CC[C@@H](C)C[C@H]1C(=O)NCc1cccc(N2CCNCC2)c1` [Compound 5, (1R,2S,5R)-2-isopropyl-5-methyl-N-(3-(piperazin-1-yl)benzyl)cyclohexanecarboxamide dihydrochloride], in data set [2] (setting [6]), the EC50 was found to be 220 nM.
On the same count and under the same terms, under `CC(C)[C@@H]1CC[C@@H](C)C[C@H]1C(=O)NCc1cccc(N2CCN(C(=O)CN)CC2)c1` [Compound 6, (1R,2S,5R)-N-(3-(4-(2-aminoacetyl)piperazin-1-yl)benzyl)-2-isopropyl-5-methylcyclohexanecarboxamide dihydrochloride] stands 377 nM; under `CC(C)[C@@H]1CC[C@@H](C)C[C@H]1C(=O)NCc1ccc(CNC(=O)CN)cc1` [Compound 7, (1R,2S,5R)-N-(4-((2-aminoacetamido)methyl)benzyl)-2-isopropyl-5-methylcyclohexanecarboxamide hydrochloride], 511 nM; under `CC(C)[C@@H]1CC[C@@H](C)C[C@H]1C(=O)NCc1ccccc1N1CCN(C(=O)CN)CC1` [Compound 9, (1R,2S,5R)-N-(2-(4-(2-aminoacetyl)piperazin-1-yl)benzyl)-2-isopropyl-5-methylcyclohexanecarboxamide dihydrochloride], over 10000 nM.
As for `CC(C)[C@@H]1CC[C@@H](C)C[C@H]1C(=O)NCc1ccc(N2CCNCC2)cc1.Cl.Cl` [Compound 10, (1R,2S,5R)-2-isopropyl-5-methyl-N-(4-(piperazin-1-yl)benzyl)cyclohexanecarboxamide dihydrochloride], in data set [2] (setting [6]), the EC50 stood at 110 nM. In addition, the solubility at 30 min in data set [3] was at least 200 mg/mL.
Consider `CC(C)[C@@H]1CC[C@@H](C)C[C@H]1C(=O)NCc1ccc2c(c1)CCNC2` [Compound 11, (1R,2S,5R)-2-isopropyl-5-methyl-N-((1,2,3,4-tetrahydroisoquinolin-6-yl)methyl)cyclohexanecarboxamide hydrochloride], for which the EC50 in data set [2] (setting [6]) amounted to 170 nM.
Same read-out and setting: under `CC(C)[C@@H]1CC[C@@H](C)C[C@H]1C(=O)NCc1ccc(CCN)cc1` [Compound 12, (1R,2S,5R)-N-(4-(2-aminoethyl)benzyl)-2-isopropyl-5-methylcyclohexanecarboxamide hydrochloride] stands 198 nM; under `CC(N)c1ccc(CNC(=O)[C@@H]2C[C@H](C)CC[C@H]2C(C)C)cc1` (stereo partly drawn) [Compound 13, (1R,2S,5R)-N-(4-(1-aminoethyl)benzyl)-2-isopropyl-5-methylcyclohexanecarboxamide hydrochloride], 153 nM.
On the same count and under the same terms, under `CC(C)[C@@H]1CC[C@@H](C)C[C@H]1C(=O)NCc1ccc(CN)cc1F` [Compound 14, (1R,2S,5R)-N-(4-(aminomethyl)-2-fluorobenzyl)-2-isopropyl-5-methylcyclohexanecarboxamide hydrochloride] stands 96 nM.
Regarding `CC(C)[C@@H]1CC[C@@H](C)C[C@H]1C(=O)NCc1ccc(CN2CCNCC2)cc1.Cl.Cl` [Compound 15, (1R,2S,5R)-2-isopropyl-5-methyl-N-(4-(piperazin-1-ylmethyl)benzyl)cyclohexanecarboxamide dihydrochloride], in data set [2], the EC50 is 79 nM. Also, the solubility at 30 min in data set [3] was at least 200 mg/mL.
For the molecule `CC(C)[C@@H]1CC[C@@H](C)C[C@H]1C(=O)NCc1cc(CN)ccn1` [Compound 17, (1R,2S,5R)-N-((4-(aminomethyl)pyridin-2-yl)methyl)-2-isopropyl-5-methylcyclohexanecarboxamide hydrochloride], the EC50 in data set [2] (setting [6]) is 58 nM.
With `CC(C)[C@@H]1CC[C@@H](C)C[C@H]1C(=O)NCc1ccc(COC2CCNCC2)cc1` [Compound 18, (1R,2S,5R)-2-isopropyl-5-methyl-N-(4-((piperidin-4-yloxy)methyl)benzyl)cyclohexanecarboxamide hydrochloride], the EC50 in data set [2] (setting [6]) turned out to be 207 nM.
On the same count and under the same terms, to `CC(C)[C@@H]1CC[C@@H](C)C[C@H]1C(=O)NCc1ccc(CN(C)Cc2ccccc2)cc1` [Compound 19, (1R,2S,5R)-N-(4-((benzyl(methyl)amino)methyl)benzyl)-2-isopropyl-5-methylcyclohexanecarboxamide hydrochloride] belongs 34800 nM; to `CC(C)[C@@H]1CC[C@@H](C)C[C@H]1C(=O)NCc1ccc(CN2CCCC2)cc1` [Compound 20, (1R,2S,5R)-2-isopropyl-5-methyl-N-(4-(pyrrolidin-1-ylmethyl)benzyl)cyclohexanecarboxamide hydrochloride], 150 nM; to `CC(C)[C@@H]1CC[C@@H](C)C[C@H]1C(=O)NCc1ccc(CN(C)C)cc1` [Compound 21, (1R,2S,5R)-N-(4-((dimethylamino)methyl)benzyl)-2-isopropyl-5-methylcyclohexanecarboxamide hydrochloride], 421 nM.
Same read-out and setting: under `CC(C)[C@@H]1CC[C@@H](C)C[C@H]1C(=O)NCc1ccc(CN2CCOCC2)cc1` [Compound 22, (1R,2S,5R)-2-isopropyl-5-methyl-N-(4-(morpholinomethyl)benzyl)cyclohexanecarboxamide hydrochloride] stands 890 nM.
